The results in this text go back to ChEMBL document CHEMBL1127553, “Derivatives of a novel cyclopeptolide. 2. Synthesis, activity against multidrug resistance in CHO and KB cells in vitro, and structure-activity relationships” (1994).

Common to all, as to type: functional, Cricetulus griseus
Experiment [1] concerns CHO. Briefly: The sensitizing capacity for colchicine treatment of multi drug resistance (MDR) CHO cell at concentration 1.0(mg/L).
Experiment [2] has as its system CHO. Briefly: The sensitizing capacity for colchicine treatment of multi drug resistance(MDR) in CHO cell at concentration 0.1(mg/L).
The test system of experiment [3] is CHO. Briefly: Sensitization of colchicine treated parental (PAR)CHO cells, measured at concentration 0.1(mg/L).
The test system of experiment [4] is CHO. Description: The sensitizing capacity for colchicine treatment of parental (PAR)CHO cells at concentration 1.0 (mg/L).

For the compound `CC[C@H](C)[C@H]1C(=O)NCC(=O)N(C)[C@@H](C(C)C)C(=O)N[C@@H](Cc2ccc(OC)cc2)C(=O)O[C@H](C)C(=O)N2CCCC[C@H]2C(=O)N(C)[C@@H](C(C)C)C(=O)N[C@@H](C(C)C)C(=O)N(C)[C@@H](CC(=O)NCc2ccco2)C(=O)N(C)[C@@H]([C@@H](C)CC)C(=O)N1C`, the Activity with CHO [1] stood at 91; in the experiment on CHO [2], 1.6; in the experiment with CHO [3], 6.8; with CHO [4], 10.

For `CC[C@H](C)[C@H]1C(=O)NCC(=O)N(C)[C@@H](C(C)C)C(=O)N[C@@H](Cc2ccc(OC)cc2)C(=O)O[C@H](C)C(=O)N2CCCC[C@H]2C(=O)N(C)[C@@H](C(C)C)C(=O)N[C@@H](C(C)C)C(=O)N(C)[C@@H](CC(=O)NC[Si](C)(C)C)C(=O)N(C)[C@@H]([C@@H](C)CC)C(=O)N1C`, the Activity in the experiment with CHO [1] is 163; with CHO [2], 3.3; in the experiment with CHO [3], 6.7; in the experiment on CHO [4] it was 11.

`CC[C@H](C)[C@H]1C(=O)NCC(=O)N(C)[C@@H](C(C)C)C(=O)N[C@@H](Cc2ccc(OC)cc2)C(=O)O[C@H](C)C(=O)N2CCCC[C@H]2C(=O)N(C)[C@@H](C(C)C)C(=O)N[C@@H](C(C)C)C(=O)N(C)[C@@H](CC(=O)OCC23CC4CC(CC(C4)C2)C3)C(=O)N(C)[C@@H]([C@@H](C)CC)C(=O)N1C`: the Activity in the experiment on CHO [1] stood at 6.7; in the experiment on CHO [2], 1; with CHO [3] it was 5.9; in the experiment with CHO [4] it was 8.5.

`CC[C@H](C)[C@H]1C(=O)NCC(=O)N(C)[C@@H](C(C)C)C(=O)N[C@@H](Cc2ccc(O)cc2)C(=O)O[C@H](C)C(=O)N2CCCC[C@H]2C(=O)N(C)[C@@H](C(C)C)C(=O)N[C@@H](C(C)C)C(=O)N(C)[C@@H](CC(=O)OC(C)(C)C)C(=O)N(C)[C@@H]([C@@H](C)CC)C(=O)N1C`: the Activity with CHO [1] turned out to be 172; in the experiment on CHO [2] it was 2.5; with CHO [3], 6.5; in the experiment with CHO [4], 14.

Turning to `CC[C@H](C)[C@H]1C(=O)NCC(=O)N(C)[C@@H](C(C)C)C(=O)N[C@@H](Cc2ccc(OC)cc2)C(=O)O[C@H](C)C(=O)N2CCCC[C@H]2C(=O)N(C)[C@@H](C(C)C)C(=O)N[C@@H](C(C)C)C(=O)N(C)[C@@H](CC(=O)OC2C3CC4CC(C3)CC2C4)C(=O)N(C)[C@@H]([C@@H](C)CC)C(=O)N1C` (stereo partly drawn), the Activity was 29 with CHO [1], 1.1 with CHO [2], 3.4 with CHO [3] and 6.1 in the experiment with CHO [4].

With `CC[C@@H](C)[C@H]1C(=O)NCC(=O)N(C)[C@@H](C(C)C)C(=O)N[C@@H](Cc2ccc(OC)cc2)C(=O)O[C@H](C)C(=O)N2CCCC[C@H]2C(=O)N(C)[C@@H](C(C)C)C(=O)N[C@@H](C(C)C)C(=O)N(C)[C@H](CC(=O)N(C)C)C(=O)N(C)[C@@H]([C@@H](C)CC)C(=O)N1C`, the Activity came to 36 in the experiment with CHO [1], 1.2 with CHO [2], 5.9 in the experiment on CHO [3] and 8.5 in the experiment with CHO [4].

On to `CC[C@H](C)[C@H]1C(=O)NCC(=O)N(C)[C@@H](C(C)C)C(=O)N[C@@H](Cc2ccc(OC)cc2)C(=O)O[C@H](C)C(=O)N2CCCC[C@H]2C(=O)N(C)[C@@H](C(C)C)C(=O)N[C@@H](C(C)C)C(=O)N(C)[C@@H](CC(=O)OCCC(C)C)C(=O)N(C)[C@@H]([C@@H](C)CC)C(=O)N1C`, for which the Activity in the experiment with CHO [1] is listed as 57; with CHO [2], 1.3; with CHO [3], 5.7; in the experiment with CHO [4], 7.8.

Take `C=CCNC(=O)C[C@@H]1C(=O)N(C)[C@@H]([C@@H](C)CC)C(=O)N(C)[C@@H]([C@H](C)CC)C(=O)NCC(=O)N(C)[C@@H](C(C)C)C(=O)N[C@@H](Cc2ccc(OC)cc2)C(=O)O[C@H](C)C(=O)N2CCCC[C@H]2C(=O)N(C)[C@@H](C(C)C)C(=O)N[C@@H](C(C)C)C(=O)N1C`: the Activity worked out at 67 in the experiment on CHO [1], 1.1 with CHO [2], 5 with CHO [3] and 9.3 in the experiment with CHO [4].

Take `CC[C@@H](C)[C@H]1C(=O)NCC(=O)N(C)[C@@H](C(C)C)C(=O)N[C@@H](Cc2ccc(OC)cc2)C(=O)O[C@@H](C)C(=O)N2CCCC[C@H]2C(=O)N(C)[C@@H](C(C)C)C(=O)N[C@@H](C(C)C)C(=O)N(C)[C@H](CC(=O)NC2CCCCC2)C(=O)N(C)[C@@H]([C@@H](C)CC)C(=O)N1C`: the Activity with CHO [1] worked out at 286; with CHO [2], 72.

Turning to `CC[C@H](C)[C@H]1C(=O)NCC(=O)N(C)[C@@H](C(C)C)C(=O)N[C@@H](Cc2ccc(OC)cc2)C(=O)O[C@H](C)C(=O)N2CCCC[C@H]2C(=O)N(C)[C@@H](C(C)C)C(=O)N[C@@H](C(C)C)C(=O)N(C)[C@@H](CC(=O)OCCC(C)(C)C)C(=O)N(C)[C@@H]([C@@H](C)CC)C(=O)N1C`, the Activity was found to be 95 in the experiment with CHO [1], 1.9 in the experiment on CHO [2], 7.5 in the experiment on CHO [3] and 8.7 in the experiment on CHO [4].

`CC[C@H](C)[C@H]1C(=O)NCC(=O)N(C)[C@@H](C(C)C)C(=O)N[C@@H](Cc2ccc(OC)cc2)C(=O)O[C@H](C)C(=O)N2CCCC[C@H]2C(=O)N(C)[C@@H](C(C)C)C(=O)N[C@@H](C(C)C)C(=O)N(C)[C@@H](CC(=O)OC23CC4CC(CC(C4)C2)C3)C(=O)N(C)[C@@H]([C@@H](C)CC)C(=O)N1C`: the Activity in the experiment on CHO [1] stood at 77; with CHO [2], 1.9; in the experiment with CHO [3], 4.5; with CHO [4], 6.

`CC[C@@H](C)[C@H]1C(=O)NCC(=O)N(C)[C@@H](C(C)C)C(=O)N[C@@H](Cc2ccc(OC)cc2)C(=O)O[C@H](C)C(=O)N2CCCC[C@H]2C(=O)N(C)[C@@H](C(C)C)C(=O)N[C@@H](C(C)C)C(=O)N(C)[C@H](CC(=O)NC(C)(C)C)C(=O)N(C)[C@@H]([C@@H](C)CC)C(=O)N1C`: the Activity with CHO [1] was found to be 151; in the experiment with CHO [2] it was 4.1; in the experiment on CHO [3], 4.4; in the experiment with CHO [4], 8.4.

Consider `CC[C@@H](C)[C@H]1C(=O)NCC(=O)N(C)[C@@H](C(C)C)C(=O)N[C@@H](Cc2ccc(OC)cc2)C(=O)O[C@H](C)C(=O)N2CCCC[C@H]2C(=O)N(C)[C@@H](C(C)C)C(=O)N[C@@H](C(C)C)C(=O)N(C)[C@H](CC(=O)N2CCCCC2)C(=O)N(C)[C@@H]([C@@H](C)CC)C(=O)N1C`, for which the Activity in the experiment with CHO [1] is recorded as 137; with CHO [2], 3.2; with CHO [3], 7.1; in the experiment on CHO [4] it was 10.

With `CC[C@H](C)[C@H]1C(=O)NCC(=O)N(C)[C@@H](C(C)C)C(=O)N[C@@H](Cc2ccc(OC(C)(C)C)cc2)C(=O)O[C@H](C)C(=O)N2CCCC[C@H]2C(=O)N(C)[C@@H](C(C)C)C(=O)N[C@@H](C(C)C)C(=O)N(C)[C@@H](CC(=O)OC(C)(C)C)C(=O)N(C)[C@@H]([C@@H](C)CC)C(=O)N1C`, the Activity in the experiment with CHO [1] is 300; with CHO [2], 28; with CHO [3] it was 6.7; with CHO [4], 9.

On to `CC[C@H](C)[C@H]1C(=O)N(C)[C@@H]([C@@H](C)CC)C(=O)NCC(=O)N(C)[C@@H](C(C)C)C(=O)N[C@@H](Cc2ccc(OC)cc2)C(=O)O[C@H](C)C(=O)N2CCCC[C@H]2C(=O)N(C)[C@@H](C(C)C)C(=O)N[C@@H](C(C)C)C(=O)N(C)[C@H](CC(=O)N2CCC[C@H]2C(=O)OC(C)(C)C)C(=O)N1C`, for which the Activity in the experiment with CHO [1] is 222; in the experiment on CHO [2], 10; with CHO [3], 6.8; in the experiment with CHO [4], 8.2.
